Patent US9315490B2, “2,5-substituted pyrimidines” (Grünenthal GmbH, priority 2014, dated 2016)

What was measured:
[1] = biological target: T1, human PDE4B1 (Homo sapiens, UniProt Q07343); experiment: TR-FRET assay using the LANCE Ultra cAMP kit to determine the activity of hPDE4B1; format: biochemical; details: read-out: Inhibition in % (inhibition of PDE4B); for inhibition at 1 µM: test concentration 1 μM; for inhibition at 10 µM: test concentration 10 μM (marked in cell)
T1 construct: host or cells: Sf9 cells
T1 sequence (Q07343 whole entry): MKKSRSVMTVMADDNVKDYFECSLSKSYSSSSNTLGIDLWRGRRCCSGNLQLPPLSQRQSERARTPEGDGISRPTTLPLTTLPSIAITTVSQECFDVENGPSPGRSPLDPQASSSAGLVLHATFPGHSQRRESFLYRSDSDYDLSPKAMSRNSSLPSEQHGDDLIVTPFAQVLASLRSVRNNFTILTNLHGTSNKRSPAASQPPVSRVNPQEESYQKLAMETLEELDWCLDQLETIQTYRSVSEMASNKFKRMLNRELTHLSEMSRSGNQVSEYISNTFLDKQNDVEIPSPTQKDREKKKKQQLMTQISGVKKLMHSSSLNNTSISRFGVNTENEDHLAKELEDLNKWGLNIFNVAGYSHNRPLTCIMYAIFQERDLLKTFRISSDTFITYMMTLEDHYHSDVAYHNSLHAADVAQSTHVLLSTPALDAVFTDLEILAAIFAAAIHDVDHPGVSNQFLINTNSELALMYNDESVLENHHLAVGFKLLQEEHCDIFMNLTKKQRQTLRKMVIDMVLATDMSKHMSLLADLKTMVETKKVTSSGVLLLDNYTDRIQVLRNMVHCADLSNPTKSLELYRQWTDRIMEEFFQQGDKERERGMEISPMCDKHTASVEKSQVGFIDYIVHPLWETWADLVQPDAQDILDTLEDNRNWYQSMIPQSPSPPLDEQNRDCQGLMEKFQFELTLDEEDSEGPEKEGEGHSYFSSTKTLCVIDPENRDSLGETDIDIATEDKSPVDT
Procedure, shortened: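 Sf9-expressed recombinant human PDE4B1 (0.96 U) hydrolyses 500 nM cAMP for 30 minutes at room temperature in 50 mM Tris-HCl, 50 mM MgCl2, 5 mM DTT, pH 8.5. The reaction is stopped with IBMX, and residual cAMP is measured by TR-FRET (665/620 ratio). IC50 comes from ten concentrations.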

[2] = biological target: T1, human PDE4B1; experiment: cAMP HTRF assay to determine the activity of hPDE4B1; format: biochemical; details: inhibition of PDE4B at a test concentration of 1 μM
Procedure, shortened: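 […], using HTRF quantitation of residual cAMP after 1 mM IBMX stop and 60 min detection. Enzyme was Sf9-expressed human PDE4B1 incubated 30 min at room temperature with 40 nM final cAMP at pH 7.8.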

| SMILES | inhibition at 1 µM [1] [%] | melting point [°C] | inhibition at 10 µM [1] [%] | inhibition at 1 µM [2] [%] |
| --- | --- | --- | --- | --- |
| C[S+]([O-])c1cn(-c2ncc(-c3ccc(C(N)=O)cc3F)cn2)c2cc(C(=O)N3CCOCC3)ccc12 (centres unmarked) [Example 19, 3-Fluoro-4-(2-(3-(methylsulfinyl)-6-(morpholine-4-carbonyl)-1H-indol-1-yl)pyrimidin-5-yl)benzamide] | – | 202 to 206 | – | 94 |
| C[S+]([O-])c1cn(-c2ncc(-c3cccc(O)c3)cn2)c2cc(C(=O)N3CCOCC3)ccc12 (centres unmarked) [Example 149, (1-(5-(3-Hydroxyphenyl)pyrimidin-2-yl)-3-(methylsulfinyl)-1H-indol-6-yl)(morpholino)methanone] | – | 249 to 253 | – | 87 |
| C[S+]([O-])c1cn(-c2ncc(-c3ccc(F)cc3F)cn2)c2cc(C(=O)N3CCOCC3)ccc12 (centres unmarked) [Example 18, (1-(5-(2,4-Difluorophenyl)pyrimidin-2-yl)-3-(methylsulfinyl)-1H-indol-6-yl)(morpholino)methanone] | – | 230 to 233 | – | 91 |
| C[S+]([O-])c1cn(-c2ncc(-c3ccc(F)cc3F)cn2)c2cc(C(=O)N3CCNCC3)ccc12 (centres unmarked) [Example 14, (1-(5-(2,4-Difluorophenyl)pyrimidin-2-yl)-3-(methylsulfinyl)-1H-indol-6-yl)(piperazin-1-yl)methanone] | – | 198 to 201 | – | 38 |
| CS(=O)(=O)c1cn(-c2ncc(-c3ccc(C(N)=O)cc3F)cn2)c2cc(C(=O)N3CCOCC3)ccc12 [Example 7, 3-Fluoro-4-(2-(3-(methylsulfonyl)-6-(morpholine-4-carbonyl)-1H-indol-1-yl)pyrimidin-5-yl)benzamide] | – | 263 to 266 | – | 88 |
| CO[C@H]1CCN(C(=O)c2ccc3c([S+](C)[O-])cn(-c4ncc(-c5ccccc5F)cn4)c3c2)C1 (stereo partly drawn) [Example 172, (1-(5-(2-Fluorophenyl)pyrimidin-2-yl)-3-(methylsulfinyl)-1H-indol-6-yl)((S)-3-methoxypyrrolidin-1-yl)methanone] | – | 164 to 166 | – | 46 |
| Cc1cccc(-c2cnc(-n3cc(S(C)(=O)=O)c4ccc(C(=O)N5CCNC(=O)C5)cc43)nc2)c1 [Example 151, 4-(3-(Methylsulfonyl)-1-(5-(m-tolyl)pyrimidin-2-yl)-1H-indole-6-carbonyl)piperazin-2-one] | – | 283 to 287 | – | 91 |
| C[S+]([O-])c1cn(-c2ncc(-c3cscn3)cn2)c2cc(C(=O)N3CCOCC3)ccc12 (centres unmarked) [Example 145, (3-(Methylsulfinyl)-1-(5-(thiazol-4-yl)pyrimidin-2-yl)-1H-indol-6-yl)(morpholino)methanone] | – | 254 to 257 | – | 83 |
| CS(=O)(=O)c1cn(-c2ncc(-c3cc(C#N)ccc3F)cn2)c2cc(C(=O)N3CCNCC3)ccc12 [Example 26, 4-Fluoro-3-(2-(3-(methylsulfonyl)-6-(piperazine-1-carbonyl)-1H-indol-1-yl)pyrimidin-5-yl)benzonitrile] | – | 279 to 283 | – | 41 |
| C[S+]([O-])c1cn(-c2ncc(-c3ccccc3Cl)cn2)c2cc(C(=O)N3CCOCC3)ccc12 (centres unmarked) [Example 3, (1-(5-(2-Chlorophenyl)pyrimidin-2-yl)-3-(methylsulfinyl)-1H-indol-6-yl)(morpholino) methanone] | – | 226 to 230 | – | 98 |
| C[S+]([O-])c1cn(-c2ncc(-c3cc(O)ccn3)cn2)c2cc(C(=O)N3CCOCC3)ccc12 (centres unmarked) [Example 147, (1-(5-(4-Hydroxypyridin-2-yl)pyrimidin-2-yl)-3-(methylsulfinyl)-1H-indol-6-yl)(morpholino)methanone] | – | 272 to 276 | – | 67 |
| CC[S+]([O-])c1cn(-c2ncc(-c3ccccc3F)cn2)c2cc(C(=O)N3CCOCC3)ccc12 (centres unmarked) [Example 29, (3-(Ethylsulfinyl)-1-(5-(2-fluorophenyl)pyrimidin-2-yl)-1H-indol-6-yl)(morpholino)methanone] | – | 122 to 126 | – | 57 |
| C[S+]([O-])c1cn(-c2ncc(-c3ccccc3F)cn2)c2cc(C(=O)N3CCNCC3)ccc12 (centres unmarked) [Example 13, (1-(5-(2-Fluorophenyl)pyrimidin-2-yl)-3-(methylsulfinyl)-1H-indol-6-yl)(piperazin-1-yl)methanone] | – | 199 to 203 | – | 51 |
| C[S+]([O-])c1cn(-c2ncc(-c3ccccc3)cn2)c2cc(C(=O)N3CCNCC3)ccc12 (centres unmarked) [Example 12, (3-(Methylsulfinyl)-1-(5-phenylpyrimidin-2-yl)-1H-indol-6-yl)(piperazin-1-yl)methanone] | – | 193 to 197 | – | 33 |
| CC(C)(O)c1cn(-c2ncc(-c3ccccc3F)cn2)c2cc(C(=O)N3CCOCC3)ccc12 [Example 184, (1-(5-(2-Fluorophenyl)pyrimidin-2-yl)-3-(2-hydroxypropan-2-yl)-1H-indol-6-yl)(morpholino)methanone] | – | 116 to 119 | – | 86 |

Continued, values first:

| inhibition at 1 µM [1] [%] | melting point [°C] | inhibition at 10 µM [1] [%] | inhibition at 1 µM [2] [%] | SMILES |
| --- | --- | --- | --- | --- |
| 82 | 286 to 288 | – | – | C[S+]([O-])c1cn(-c2ncc(-c3nc(C(N)=O)cs3)cn2)c2cc(C(=O)N3CCOCC3)ccc12 (centres unmarked) [Example 204, 2-(2-(3-(Methylsulfinyl)-6-(morpholine-4-carbonyl)-1H-indol-1-yl)pyrimidin-5-yl)thiazole-4-carboxamide] |
| 87 | 206 to 210 | – | – | C[S+]([O-])c1cn(-c2ncc(-c3ccccc3F)cn2)c2cc(C(=O)N3CCO[C@@H](CO)C3)ccc12 (stereo partly drawn) [Example 219, (1-(5-(2-Fluorophenyl)pyrimidin-2-yl)-3-(methylsulfinyl)-1H-indol-6-yl)((R)-2-(hydroxymethyl)morpholino)methanone] |
| 93 | 194 to 198 | – | – | C[S+]([O-])c1cn(-c2ncc(-c3ccccc3F)cn2)c2cc(C(=O)N3CCO[C@H](CO)C3)ccc12 (stereo partly drawn) [Example 220, (1-(5-(2-Fluorophenyl)pyrimidin-2-yl)-3-(methylsulfinyl)-1H-indol-6-yl)((S)-2-(hydroxymethyl)morpholino)methanone] |
| – | 160 to 163 | 102 | – | CCc1ccnc(-c2cnc(-n3cc([S+](C)[O-])c4ccc(C(=O)N5CC[C@@H](N)C5)cc43)nc2)c1 (stereo partly drawn) [Example 337, ((R)-3-Aminopyrrolidin-1-yl)(1-(5-(4-ethylpyridin-2-yl)pyrimidin-2-yl)-3-(methylsulfinyl)-1H-indol-6-yl)methanone] |
| 96 | 232 to 235 | – | – | Cc1csc(-c2cnc(-n3cc([S+](C)[O-])c4ccc(C(=O)N5CCOCC5)cc43)nc2)c1 (centres unmarked) [Example 197] |
| 94 | 88 to 92 | – | – | CN(CCN)C(=O)c1ccc2c([S+](C)[O-])cn(-c3ncc(-c4ccccc4F)cn3)c2c1 (centres unmarked) [Example 221, N-(2-Aminoethyl)-1-(5-(2-fluorophenyl)pyrimidin-2-yl)-N-methyl-3-(methylsulfinyl)-1H-indole-6-carboxamide] |
| – | 264 to 268 | 99 | – | CC(C)c1ccnc(-c2cnc(-n3cc([S+](C)[O-])c4ccc(C(=O)N5CC[C@@H](N)C5)cc43)nc2)c1 (stereo partly drawn) [Example 338, ((R)-3-Aminopyrrolidin-1-yl)(1-(5-(4-isopropylpyridin-2-yl)pyrimidin-2-yl)-3-(methylsulfinyl)-1H-indol-6-yl)methanone] |
| – | 157 to 160 | 100 | – | Cc1ccnc(-c2cnc(-n3cc(S(C)(=O)=O)c4ccc(C(=O)N5CC[C@@H](N)C5)cc43)nc2)c1 [Example 340, (R)-(3-Aminopyrrolidin-1-yl)(1-(5-(4-methylpyridin-2-yl)pyrimidin-2-yl)-3-(methylsulfonyl)-1H-indol-6-yl)methanone] |
| – | 278 to 281 | 105 | – | C[S+]([O-])c1cn(-c2ncc(-c3cc(C4CC4)ccn3)cn2)c2cc(C(=O)N3CC[C@@H](N)C3)ccc12 (stereo partly drawn) [Example 339, ((R)-3-Aminopyrrolidin-1-yl)(1-(5-(4-cyclopropylpyridin-2-yl)pyrimidin-2-yl)-3-(methylsulfinyl)-1H-indol-6-yl)methanone] |
| – | 278 to 282 | – | 33 | C[S+]([O-])c1cn(-c2ncc(-c3ccnnc3)cn2)c2cc(C(=O)N3CCOCC3)ccc12 (centres unmarked) [Example 212, (3-(Methylsulfinyl)-1-(5-(pyridazin-4-yl)pyrimidin-2-yl)-1H-indol-6-yl)(morpholino)methanone] |
| – | 222 to 225 | – | 81 | C[S+]([O-])c1cn(-c2ncc(-c3ncccc3F)cn2)c2cc(C(=O)N3CCOCC3)ccc12 (centres unmarked) [Example 201, (1-(5-(3-Fluoropyridin-2-yl)pyrimidin-2-yl)-3-(methylsulfinyl)-1H-indol-6-yl)(morpholino)methanone] |
| – | 288 to 290 | – | 99 | C[S+]([O-])c1cn(-c2ncc(-c3ccc(C(N)=O)cn3)cn2)c2cc(C(=O)N3CCOCC3)ccc12 (centres unmarked) [Example 199, 6-(2-(3-(Methylsulfinyl)-6-(morpholine-4-carbonyl)-1H-indol-1-yl)pyrimidin-5-yl)nicotinamide] |
| – | 230 to 235 | – | 91 | C[S+]([O-])c1cn(-c2ncc(-c3cccc(C(=O)O)c3)cn2)c2cc(C(=O)N3CCOCC3)ccc12 (centres unmarked) [Example 193, 3-(2-(3-(Methylsulfinyl)-6-(morpholine-4-carbonyl)-1H-indol-1-yl)pyrimidin-5-yl)benzoic acid] |
